Data as given in patent publication EP0039265A1, “Medicine containing a biflavanone compound” (SCIENCE UNION ET Cie SOCIETE FRANCAISE DE RECHERCHE MEDICALE, priority 1980, dated 1981).
pIC50: −log10 of the molar value.

Legend:
[1] = biological target: T1, aldose-réductase extraite de cristallins de rats (Rattus norvegicus, UniProt P07943); assay: Aldose reductase inhibition in vitro (NADPH disappearance); assay type: biochemical; conditions: rat lens enzyme, pH 7, 25°C, 10 min preincubation, substrate aldéhyde d-glycérique; read-out: inhibition à 50 %
T1 construct: l'aldose-réductase extraite de cristallins de rats; from tissue; host or cells: rat lens (CD River rats)
Method: L'activité inhibitrice d'aldose-réductase des composés de la présente invention a été mise en évidence par des essais in vitro sur l'aldose-réductase […] selon la technique […] et J.H. KINOSHITA, J. Biol. Chem. 240 (1965) 877, […] et J.H. KINOSHITA, Biochemical Pharmacolo- gy 5 (1976) 2505-2613. : La biflavanone (I), mise en suspension dans du tampon pH 7, est placée en incubation à 25°C dans un […] bouché contenant l'aldose-réductase […] CD River. Après 10 mn de contact, le substrat ([…] introduit dans la cuve deré- action. La cinétique enzymatique est appréciée par la disparition, du milieu, du co-facteur Ac. Nicotinamide-adénine diphosphorique réduite (NADPH) selon la réaction : [drawing 6] On calcule l'activité enzymatique par détermination de la quantité de NADPH disparue. Les résultats sont exprimés en pourcentage de l'activité enzymatique de la préparation en l'absence de tout inhibiteur. Dans ces conditions on peut déterminer, par exemple, la dose minimale qui inhibe à 50 % l'activité enzymatique.

[2] = High-dose toxicity, intraperitoneal administration, rat; conditions: in vivo, ip, rat Sprague Dawley, male, read-out: dose maximale toujours tolérée
Method: Elle a été déterminée sur des groupes homogènes de souris Swiss et NMRI mâles, de race pure, pesant de 19 à 22 g et sur des groupes homogènes de rats Sprague Dawley màles adultes d'un poids moyen de 300 g..
En administration intrapéritonéale, aussi bien chez le rat que chez la souris, la dose maximale toujours tolérée est supérieure à 3 et 4.000 mg/kg.

[3] = tested on: perméabilité des parois des vaisseaux sanguins; assay: Ambrose and De Eds method: time of appearance of Trypan blue at chloroform-irritated skin; assay type: in vivo, lapin; conditions: voie orale, suspension, rabbit, maximum of activity about 6 to 7 h after administration
Method: Nous avons utilisé une méthode dérivée de celle décrite par AMBROSE et DE EDS [J. Pharm. Exp. Ther. 90, 359 (1947)] . Un lapin mâle fauve, d'un poids compris entre 2,0 et 2,5 kg, est épilé sur toute la région ventrale à l'aide d'une pâte au sulfure de baryum. Le lendemain l'animal reçoit, en injection intraveineuse 25mg/kg d'une'solution aqueuse de Bleu Trypan à 1 p. 100. Trente minutes après cette injection,on applique pendant 30 secondes un tampon de coton de 1,2 cm de côté, imbibé de chloroforme, en deux ou trois points de la zone êpi- lée, et on note le temps d'apparition de la couleur bleue.
Ce temps doit être sensiblement constant quel que soit le point d'application du tampon et traduit la plus ou moins grande rapidité avec laquelle le colorant quitte le courant sanguin pour imprégner les tissus sous-cutanés.
Le produit à tester est alors aussitôt administré soit par voie intra-péritonéale, soit par voie orale. L'agent irritant est appliqué de nouveau, à des intervalles de quinze minutes, en d'autres points de la zone épilée : on note à chaque fois le temps d'apparition de la coloration bleue.
On opère en principe sur des lots de sept lapins par dose et par produit. Il est à noter que : • - la réponse à l'agent irritant n'étant pas forcément identique selon le point d'application sur l'abdomen, il faut faire varier systématiquement "les points témoins" et les "points traités" d'un lapin à l'autre; • - il faut toujours considérer le temps d'apparition de la coloration bleue et non le temps de son développement complet; • - au bout d'une heure d'expérience, et à chaque heure ensuite, il faut refaire une injection intraveineuse de Bleu Trypan de 1ml de solution aqueuse à 1 p.100; • - chaque lapin est son propre témoin.
Le protocole opératoire précédent a été utilisé et les doses suivantes ont été administrées : 500 mg et 1.000 mg/kg. La biflavanone (I) a été ingérée sous forme de solution aqueuse additionnée de 5 % de gomme adragante. Les résultats sont évalués en pourcentage d'augmentation du temps d'apparition de la couleur bleue au niveau du point d'application par rapport au temps de base mesuré avant traitement, et comparés à des substances de référence administrées dans les mêmes conditions catéchine hydrate, hespéridine, quercétine, rutine. Les résultats sont consignés dans le tableau ci-dessous, le maximum d'activité étant obtenu 6 à 7 heures environ après l'administration du produit.

[4] = tested on: perméabilité des parois des vaisseaux sanguins; assay: Beach and Steinetz method: Trypan blue content of chloroform-irritated skin; assay type: in vivo, lapin; conditions: rabbit
Text: La technique d'AMBROSE et DE EDS a été modifiée afin de mesurer la coloration de la tache selon la technique de BEACH et STEINETZ [(J. Pharm. Expl. Therap. (1961) 131, n° 1, p. 400 à 406)]. Des lapins New-Zealand mâles de 2,5 kg reçoivent une injection IP de produit à tester, ou d'eau gommée pour les témoins.
Trente minutes après, sur la peau abdominale.préalablement épilée, un tampon de chloroforme est appliqué trente secondes, afin de créer une irritation locale qui favorise la diffusion du colorant hors des capillaires vers les liquides interstitiels.
Immédiatement après,une solution de Bleu Trypan à 25mg/kg est injectée dans la veine marginale de l'oreille. Une tache bleue apparait à l'endroit irrité. Le lapin est tué par Einjection intracardiaque de pentobarbital, 30 minutes après l'injection du Bleu Trypan.
Les fragments de peau sont prélevés, posés et laissés à digérer 24 heures dans HCI pur. Le Bleu Trypan est dosé selon la technique de BEACH et STEINETZ.
Après la dissolution complète, l'addition de 3 ml de chlorure de Benzalkonium en solution aqueuse à 12,80 % complexe le colorant qui est ensuite repris par 5 ml de chloroforme. Après centrifugation, la phase chloroformique bleue est rapidement soutirée et filtrée, la lecture spectrophotométrique est faite immédiatement afin d'éviter une concentration du colorant par évaporation du chloroforme. Les densités optiques à 620 mn sont traduites en µg de bleu/100 mg de tissu.
Le protocole opératoire précédent a été utilisé et les doses 200 et 400 mg ont été administrées. Les résultats, exprimés en ng de colorant par 100 g de peau fraiche sont donnés dans le tableau suivant : […]

perméabilité capillaire = assay: Lefebvre technique: appearance of a dye at an intradermal histamine injection site; assay type: in vivo; conditions: intraperitoneal 100 mg/kg, rat
Method: D'autres tests, utilisés chez le rat, ont confirmé les possibilités de la biflavanone dans la diminution de la perméabilité capillaire par rapport aux produits de référence classiques, et notamment les tests réalisés selon la technique de […]. Soc. Biol. 1, 183 (1962)] qui consiste à observer l'apparition d'un colorant au niveau d'une injection intradermique d'histamine. Il a été constaté que l'infection intrapéritonéale de 100 mg/kg de biflavanone (I) […]'apparition de la coloration de 70 % . La rutine a la même dose ne provoque qu'un retard de 12 %

résistance capillaire = assay: Parrot method: capillary resistance under vitamin P-deficient diet; assay type: in vivo; conditions: injection of 50 mg/kg; cobaye; mean of 10 animals; measured 3 to 48 h after administration
Text: Pour mettre en évidence l'action sur la résistance capillaire, nous avons utilisé […]. PARROT et coll. [C.R. Soc. Biol. 140 750 (1946)]. Elle consiste à étudier les variations de la résistance capillaire chez le cobaye soumis à un […] vitaminique P(C2), mais équilibré en vitamine C. La résistance capillaire est mesurée au niveau de la région lombaire en appliquant sur la peau, préalablement épilée, une ventouse de verre de 5 mm de diamètre. On détermine la valeur de la dépression, exprimée en cm de mercure; qu'il faut réaliser pour […], au bout de 50 secondes environ, 3 […] sur la surface entourée. Cette dépression […] comprise entre 25 et 35 cm de mercure, mais elle chute à 10 cm de Hg chez les animaux soumis au […]é pendant 10 jours. […] L'élévation de la résistance capillaire et sa durée sont […]- quement par la valeur de la surface obtenue en portant sur un système de coordonné[…]. On a constaté […] surface est de 20,8 cm ^2 après injection de 50 mg/kg de biflavanone (I), […] que la même dose de rutine ne donne que 6,42 cm^2.

[5] = I.P. 200 mg/kg, eau gommée control 4,62 ± 1,4
[6] = I.P. 400 mg/kg, eau gommée control 5,01 ± 2,3

| SMILES | pIC50 [1] | Augmentation % du temps d'apparition par rapport au temps témoin ([3]; 1.000 mg/kg) [%] | Augmentation % du temps d'apparition par rapport au temps témoin ([3]; 500 mg/kg) [%] | other results |
| --- | --- | --- | --- | --- |
| O=C(O)CN1C(=O)c2cccc3cccc(c23)C1=O [Alrestatine, alrestatine] | 6.00 |  |  |  |
| O=C1c2c(O)cc(O)c(C3C(=O)c4c(O)cc(O)cc4OC3c3ccc(O)c(O)c3)c2OC(c2ccc(O)c(O)c2)C1O (stereo not drawn) [Biflavanone (I), manniflavone] | 6.60 to 7.00 | 125 | 50 | MTD [2]: > 3 mg/kg; CON[…] BLEU TRYPAN [4, 5]: 4 ± 2,3 µg/100 g DE PEAU; CON[…] BLEU TRYPAN [4, 6]: 3,1 ± 2,3 µg/100 g DE PEAU; retard de l'apparition de la coloration (perméabilité capillaire): 70%; surface (élévation de la résistance capillaire et sa durée, planimétrie) (résistance capillaire): 20,8 cm^2 |
| Oc1cc(O)c2c(c1)O[C@H](c1ccc(O)c(O)c1)[C@@H](O)C2 [Catéchine hydrate] |  | 50 | 38 |  |
| COc1ccc(-c2cc(=O)c3c(O)cc(O[C@@H]4O[C@H](CO[C@@H]5O[C@@H](C)[C@H](O)[C@@H](O)[C@H]5O)[C@@H](O)[C@H](O)[C@H]4O)cc3o2)cc1O [Diosmine, diosmine] | 4.00 to 4.30 |  |  | CONCENTRATION DU BLEU TRYPAN [4, 5]: 2,66 ± 2 µg/100 g DE PEAU; CONCENTRATION DU BLEU TRYPAN [4, 6]: 2,50 ±1,6 µg/100 g DE PEAU |
| COc1ccc([C@@H]2CC(=O)c3c(O)cc(O[C@@H]4O[C@H](CO[C@@H]5O[C@@H](C)[C@H](O)[C@@H](O)[C@H]5O)[C@@H](O)[C@H](O)[C@H]4O)cc3O2)cc1O [Hespé-ridine, hespéridine] |  | 0 | 0 |  |
| O=c1c(O)c(-c2ccc(O)c(O)c2)oc2cc(O)cc(O)c12 [Quercé-tine, quercétine] |  | 0 | 0 |  |
| C[C@@H]1O[C@@H](OC[C@H]2O[C@@H](Oc3c(-c4ccc(O)c(O)c4)oc4cc(O)cc(O)c4c3=O)[C@H](O)[C@@H](O)[C@@H]2O)[C@H](O)[C@H](O)[C@H]1O [Rutine, rutine] |  | 77 | 27 | CONCENTRATION DU BLEU TRYPAN [4, 5]: 3,6 ± 1,8 µg/100 g DE PEAU; CONCENTRATION DU BLEU TRYPAN [4, 6]: 3,2 ± 2 µg/100 g DE PEAU; retard de l'apparition de la coloration (perméabilité capillaire): 12%; surface (élévation de la résistance capillaire et sa durée, planimétrie) (résistance capillaire): 6,42 cm^2 |
